In patent publication US20230081426A1, “COMPOUNDS AND METHODS FOR KRAS MODULATION AND INDICATIONS THEREFOR” (Plexxikon Inc., priority 2020, published 2023):

Key:
[1] = target: T1, G12D-mutant human KRAS (amino acid residues 1-188) (Homo sapiens, UniProt P01116, G12D); test: KRAS Binding Disruption Assay (AlphaScreen; biotinylated KRpep-2d analogue or RAF1-RBD), G12D; conditions: KRAS G12D; geometric mean; read-out: KRAS GMean IC50 (uM) MUTATION: G12D
T1 construct: G12D or G12C-mutant human KRAS (amino acid residues 1-188) with FLAG tag; made in house; host or cells: E. coli
T1 sequence (P01116 1-188 isoform P01116-2 G12D): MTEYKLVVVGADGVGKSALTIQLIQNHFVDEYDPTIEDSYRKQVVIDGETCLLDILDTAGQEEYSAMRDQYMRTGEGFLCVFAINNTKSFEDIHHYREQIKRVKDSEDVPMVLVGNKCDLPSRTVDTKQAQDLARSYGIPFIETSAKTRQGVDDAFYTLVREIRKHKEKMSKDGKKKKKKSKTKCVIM
Procedure, shortened: (§1)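 Displacement format with mutant KRAS, biotinylated KRpep-2d analogue or RAF1-RBD (5-20 nM each) at pH 7.5 with 5 mM MgCl2.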

[2] = target: T2, G12C-mutant human KRAS (amino acid residues 1-188) (Homo sapiens, UniProt P01116, G12C); test: KRAS Binding Disruption Assay (AlphaScreen; biotinylated KRpep-2d analogue or RAF1-RBD), G12C; conditions: geometric mean, read-out: KRAS GMean IC50 (uM) MUTATION: G12C
T2 construct: G12D or G12C-mutant human KRAS (amino acid residues 1-188) with FLAG tag; made in house; host or cells: E. coli
T2 sequence (P01116 1-188 isoform P01116-2 G12C): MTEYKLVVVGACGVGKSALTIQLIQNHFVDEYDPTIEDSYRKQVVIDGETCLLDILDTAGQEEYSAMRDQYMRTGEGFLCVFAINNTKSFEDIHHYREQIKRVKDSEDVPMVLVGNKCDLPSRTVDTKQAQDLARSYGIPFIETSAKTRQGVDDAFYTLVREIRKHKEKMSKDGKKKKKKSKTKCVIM
Procedure, shortened: as §1

Row | SMILES | IC50 [1] [µM] | IC50 [2] [µM]
1 | Oc1cc(-c2ccc3c(N4C[C@H]5CC[C@@H](C4)N5)nc(N4C[C@@H](O)[C@H](O)C4)nc3c2F)c2ccccc2c1 [P-0685, (3R,4R)-1-(4-((1R,5S)-3,8-diazabicyclo[3.2.1]octan-3-yl)-8-fluoro-7-(3-hydroxynaphthalen-1-yl)quinazolin-2-yl)pyrrolidine-3,4-diol] | 0.0001 to 10 | 10 to 100
2 | N#Cc1cccc2[nH]cc(-c3ccc4c(N5C[C@H]6CC[C@@H](C5)N6)nc(OCC56CCCN5CCC6)nc4c3F)c12 [P-0666, 3-(4-((1R,5S)-3,8-diazabicyclo[3.2.1]octan-3-yl)-8-fluoro-2-((tetrahydro-1H-pyrrolizin-7a(5H)-yl)methoxy)quinazolin-7-yl)-1H-indole-4-carbonitrile] | 0.0001 to 10 | 0.0001 to 10
3 | COc1cccc2c(-c3c(F)cc4c(N5C[C@H]6CC[C@@H](C5)N6)nc(OC[C@@H]5CCCN5C)nc4c3F)c[nH]c12 [P-0799, 4-((1R,5S)-3,8-diazabicyclo[3.2.1]octan-3-yl)-6,8-difluoro-7-(7-methoxy-1H-indol-3-yl)-2-(((S)-1-methylpyrrolidin-2-yl)methoxy)quinazoline] | 10 to 100 | 100 to 1000
4 | COc1ccc(CNCCc2nc(N3C[C@H]4CC[C@@H](C3)N4)c3ccc(-c4cc(O)cc5ccccc45)c(F)c3n2)cc1 [P-0772, 4-(4-((1R,5S)-3,8-diazabicyclo[3.2.1]octan-3-yl)-8-fluoro-2-(2-((4-methoxybenzyl)amino)ethyl)quinazolin-7-yl)naphthalen-2-ol] | 0.0001 to 10 | 10 to 100
5 | CN1CCC[C@H]1COc1nc(N2C[C@H]3CC[C@@H](C2)N3)c2ccc(-c3c[nH]c4cccc(C(F)(F)F)c34)cc2n1 [P-0729, 4-((1R,5S)-3,8-diazabicyclo[3.2.1]octan-3-yl)-2-(((S)-1-methylpyrrolidin-2-yl)methoxy)-7-(4-(trifluoromethyl)-1H-indol-3-yl)quinazoline] | 0.0001 to 10 | 10 to 100
6 | Oc1cc(-c2ccc3c(N4C[C@H]5CC[C@@H](C4)N5)nc(OCC4CCC(F)(F)CC4)nc3c2F)c2ccccc2c1 [P-0752, 4-(4-((1R,5S)-3,8-diazabicyclo[3.2.1]octan-3-yl)-2-((4,4-difluorocyclohexyl)methoxy)-8-fluoroquinazolin-7-yl)naphthalen-2-ol] | 0.0001 to 10 | 10 to 100
7 | Fc1cc2c(N3C[C@H]4CC[C@@H](C3)N4)nc(OCC34CCCN3CCC4)nc2c(F)c1-c1c[nH]c2ccc(F)c(Cl)c12 [P-0679, 4-((1R,5S)-3,8-diazabicyclo[3.2.1]octan-3-yl)-7-(4-chloro-5-fluoro-1H-indol-3-yl)-6,8-difluoro-2-((tetrahydro-1H-pyrrolizin-7a(5H)-yl)methoxy)quinazoline] | 0.0001 to 10 | 0.0001 to 10
8 | Cc1cc(CN2[C@@H]3CC[C@H]2CN(c2nc(OCC45CCCN4CCC5)nc4cc(-c5cc(O)cc6ccccc56)ccc24)C3)no1 [P-0006, 4-(4-((1R,5S)-8-((5-methylisoxazol-3-yl)methyl)-3,8-diazabicyclo[3.2.1]octan-3-yl)-2-((tetrahydro-1H-pyrrolizin-7a(5H)-yl)methoxy)quinazolin-7-yl)naphthalen-2-ol] | 0.0001 to 10 | 10 to 100
9 | CP(C)(=O)CC(=O)N1[C@@H]2CC[C@H]1CN(c1nc(OCC34CCCN3CCC4)nc3c(F)c(-c4cc(O)cc5ccccc45)ccc13)C2 [P-0773, 2-(dimethylphosphoryl)-1-((1R,5S)-3-(8-fluoro-7-(3-hydroxynaphthalen-1-yl)-2-((tetrahydro-1H-pyrrolizin-7a(5H)-yl)methoxy)quinazolin-4-yl)-3,8-diazabicyclo[3.2.1]octan-8-yl)ethan-1-one] | 0.0001 to 10 | 0.0001 to 10
10 | Fc1cc2c(N3C[C@H]4CC[C@@H](C3)N4)nc(OCC34CCCN3CCC4)nc2c(F)c1-c1c(Cl)cnc2[nH]ccc12 [P-0645, 4-((1R,5S)-3,8-diazabicyclo[3.2.1]octan-3-yl)-7-(5-chloro-1H-pyrrolo[2,3-b]pyridin-4-yl)-6,8-difluoro-2-((tetrahydro-1H-pyrrolizin-7a(5H)-yl)methoxy)quinazoline] | 0.0001 to 10 | 10 to 100
11 | Oc1cc(-c2ccc3c(N4C[C@H]5CC[C@@H](C4)N5)nc(OCC4CCC(F)(F)C4)nc3c2F)c2ccccc2c1 (stereo partly drawn) [P-0738, 4-(4-((1R,5S)-3,8-diazabicyclo[3.2.1]octan-3-yl)-2-((3,3-difluorocyclopentyl)methoxy)-8-fluoroquinazolin-7-yl)naphthalen-2-ol] | 0.0001 to 10 | 10 to 100
12 | Oc1cc(-c2ccc3c(N4C[C@H]5CC[C@@H](C4)N5)nc(N4CC5(CCCN5)C4)nc3c2F)c2ccccc2c1 [P-0682, 4-(4-((1R,5S)-3,8-diazabicyclo[3.2.1]octan-3-yl)-8-fluoro-2-(2,5-diazaspiro[3.4]octan-2-yl)quinazolin-7-yl)naphthalen-2-ol] | 0.0001 to 10 | 10 to 100
13 | Oc1cc(-c2ccc3c(N4C[C@H]5CC[C@@H](C4)N5)nc(OCC4CCCOC4)nc3c2F)c2ccccc2c1 (stereo partly drawn) [P-0776, 4-(4-((1R,5S)-3,8-diazabicyclo[3.2.1]octan-3-yl)-8-fluoro-2-((tetrahydro-2H-pyran-3-yl)methoxy)quinazolin-7-yl)naphthalen-2-ol] | 0.0001 to 10 | 10 to 100
14 | Fc1cc2[nH]cc(-c3c(F)cc4c(N5C[C@H]6CC[C@@H](C5)N6)nc(OCC56CCCN5CCC6)nc4c3F)c2cc1F [P-0789, 4-((1R,5S)-3,8-diazabicyclo[3.2.1]octan-3-yl)-7-(5,6-difluoro-1H-indol-3-yl)-6,8-difluoro-2-((tetrahydro-1H-pyrrolizin-7a(5H)-yl)methoxy)quinazoline] | 0.0001 to 10 | 10 to 100
15 | Oc1cc(-c2ccc3c(N4C[C@H]5CC[C@@H](C4)N5)nc(OCC4CC4(F)F)nc3c2F)c2ccccc2c1 (stereo partly drawn) [P-0741, 4-(4-((1R,5S)-3,8-diazabicyclo[3.2.1]octan-3-yl)-2-((2,2-difluorocyclopropyl)methoxy)-8-fluoroquinazolin-7-yl)naphthalen-2-ol] | 0.0001 to 10 | 10 to 100
16 | O=C1CC(COc2nc(N3C[C@H]4CC[C@@H](C3)N4)c3ccc(-c4cc(O)cc5ccccc45)c(F)c3n2)CN1 (stereo partly drawn) [P-0766, 4-(((4-((1R,5S)-3,8-diazabicyclo[3.2.1]octan-3-yl)-8-fluoro-7-(3-hydroxynaphthalen-1-yl)quinazolin-2-yl)oxy)methyl)pyrrolidin-2-one] | 0.0001 to 10 | 10 to 100
17 | CNCCc1nc(N2C[C@H]3CC[C@@H](C2)N3)c2ccc(-c3cc(O)cc4ccccc34)c(F)c2n1 [P-0754, 4-(4-((1R,5S)-3,8-diazabicyclo[3.2.1]octan-3-yl)-8-fluoro-2-(2-(methylamino)ethyl)quinazolin-7-yl)naphthalen-2-ol] | 0.0001 to 10 | 10 to 100
18 | Oc1cc(-c2ccc3c(N4C[C@H]5CC[C@@H](C4)N5)nc(OC[C@@H]4CCCN4)nc3c2F)c2ccccc2c1 [P-0714, 4-(4-((1R,5S)-3,8-diazabicyclo[3.2.1]octan-3-yl)-8-fluoro-2-(((S)-pyrrolidin-2-yl)methoxy)quinazolin-7-yl)naphthalen-2-ol] | 0.0001 to 10 | 10 to 100
19 | CN1CCC[C@H]1COc1nc(N2C[C@H]3CC[C@@H](C2)N3)c2cc(F)c(-c3c[nH]c4c(Cl)cccc34)c(F)c2n1 [P-0800, 4-((1R,5S)-3,8-diazabicyclo[3.2.1]octan-3-yl)-7-(7-chloro-1H-indol-3-yl)-6,8-difluoro-2-(((S)-1-methylpyrrolidin-2-yl)methoxy)quinazoline] | 10 to 100 | 100 to 1000
20 | CN1CCC[C@H]1COc1nc(N2C[C@H]3CC[C@@H](C2)O3)c2ccc(-c3cc(O)cc4ccccc34)c(F)c2n1 [P-0114, 4-(4-((1R,5S)-8-oxa-3-azabicyclo[3.2.1]octan-3-yl)-8-fluoro-2-(((S)-1-methylpyrrolidin-2-yl)methoxy)quinazolin-7-yl)naphthalen-2-ol] | 0.0001 to 10 | 0.0001 to 10
21 | CCc1cccc2[nH]cc(-c3c(F)cc4c(N5C[C@H]6CC[C@@H](C5)N6)nc(OCC56CCCN5CCC6)nc4c3F)c12 [P-0731, 4-((1R,5S)-3,8-diazabicyclo[3.2.1]octan-3-yl)-7-(4-ethyl-1H-indol-3-yl)-6,8-difluoro-2-((tetrahydro-1H-pyrrolizin-7a(5H)-yl)methoxy)quinazoline] | 0.0001 to 10 | 0.0001 to 10
22 | Fc1cc2c(N3C[C@H]4CC[C@@H](C3)N4)nc(OCC34CCCN3CCC4)nc2c(F)c1-c1c[nH]c2cccc(C(F)(F)F)c12 [P-0737, 4-((1R,5S)-3,8-diazabicyclo[3.2.1]octan-3-yl)-6,8-difluoro-2-((tetrahydro-1H-pyrrolizin-7a(5H)-yl)methoxy)-7-(4-(trifluoromethyl)-1H-indol-3-yl)quinazoline] | 0.0001 to 10 | 0.0001 to 10
23 | CC(=O)NCCOc1nc(N2C[C@H]3CC[C@@H](C2)N3)c2ccc(-c3cc(O)cc4ccccc34)c(F)c2n1 [P-0692, N-(2-((4-((1R,5S)-3,8-diazabicyclo[3.2.1]octan-3-yl)-8-fluoro-7-(3-hydroxynaphthalen-1-yl)quinazolin-2-yl)oxy)ethyl)acetamide] | 0.0001 to 10 | 10 to 100
24 | Oc1cc(-c2ccc3c(N4C[C@H]5CC[C@@H](C4)N5)nc(OCc4cnco4)nc3c2F)c2ccccc2c1 [P-0716, 4-(4-((1R,5S)-3,8-diazabicyclo[3.2.1]octan-3-yl)-8-fluoro-2-(oxazol-5-ylmethoxy)quinazolin-7-yl)naphthalen-2-ol] | 0.0001 to 10 | 10 to 100
25 | CN1CCC[C@H]1COc1nc(N2C[C@H]3CC[C@@H](C2)N3)c2cc(F)c(-c3cn(C)c4ccccc34)c(F)c2n1 [P-0801, 4-((1R,5S)-3,8-diazabicyclo[3.2.1]octan-3-yl)-6,8-difluoro-7-(1-methyl-1H-indol-3-yl)-2-(((S)-1-methylpyrrolidin-2-yl)methoxy)quinazoline] | 10 to 100 | 100 to 1000
